Reference: ChEMBL document CHEMBL5584225, “Discovery of an efficacious KDM5B PROTAC degrader GT-653 up-regulating IFN response genes in prostate cancer” (Eur J Med Chem, 2024)
The source made the active and inactive calls. The rule behind the calls is not given here.

Tests used:
[1] = biological target: Lysine-specific demethylase 5B (Homo sapiens) (UniProt Q9UGL1); assay: Inhibition of KDM5B in human 22Rv1 cells assessed as upregulation of H3K4me3 level at 20 uM incubated for 24 hrs by Western blot analysis; format: cell-based
Lysine-specific demethylase 5B (Homo sapiens), sequence (Q9UGL1 whole entry): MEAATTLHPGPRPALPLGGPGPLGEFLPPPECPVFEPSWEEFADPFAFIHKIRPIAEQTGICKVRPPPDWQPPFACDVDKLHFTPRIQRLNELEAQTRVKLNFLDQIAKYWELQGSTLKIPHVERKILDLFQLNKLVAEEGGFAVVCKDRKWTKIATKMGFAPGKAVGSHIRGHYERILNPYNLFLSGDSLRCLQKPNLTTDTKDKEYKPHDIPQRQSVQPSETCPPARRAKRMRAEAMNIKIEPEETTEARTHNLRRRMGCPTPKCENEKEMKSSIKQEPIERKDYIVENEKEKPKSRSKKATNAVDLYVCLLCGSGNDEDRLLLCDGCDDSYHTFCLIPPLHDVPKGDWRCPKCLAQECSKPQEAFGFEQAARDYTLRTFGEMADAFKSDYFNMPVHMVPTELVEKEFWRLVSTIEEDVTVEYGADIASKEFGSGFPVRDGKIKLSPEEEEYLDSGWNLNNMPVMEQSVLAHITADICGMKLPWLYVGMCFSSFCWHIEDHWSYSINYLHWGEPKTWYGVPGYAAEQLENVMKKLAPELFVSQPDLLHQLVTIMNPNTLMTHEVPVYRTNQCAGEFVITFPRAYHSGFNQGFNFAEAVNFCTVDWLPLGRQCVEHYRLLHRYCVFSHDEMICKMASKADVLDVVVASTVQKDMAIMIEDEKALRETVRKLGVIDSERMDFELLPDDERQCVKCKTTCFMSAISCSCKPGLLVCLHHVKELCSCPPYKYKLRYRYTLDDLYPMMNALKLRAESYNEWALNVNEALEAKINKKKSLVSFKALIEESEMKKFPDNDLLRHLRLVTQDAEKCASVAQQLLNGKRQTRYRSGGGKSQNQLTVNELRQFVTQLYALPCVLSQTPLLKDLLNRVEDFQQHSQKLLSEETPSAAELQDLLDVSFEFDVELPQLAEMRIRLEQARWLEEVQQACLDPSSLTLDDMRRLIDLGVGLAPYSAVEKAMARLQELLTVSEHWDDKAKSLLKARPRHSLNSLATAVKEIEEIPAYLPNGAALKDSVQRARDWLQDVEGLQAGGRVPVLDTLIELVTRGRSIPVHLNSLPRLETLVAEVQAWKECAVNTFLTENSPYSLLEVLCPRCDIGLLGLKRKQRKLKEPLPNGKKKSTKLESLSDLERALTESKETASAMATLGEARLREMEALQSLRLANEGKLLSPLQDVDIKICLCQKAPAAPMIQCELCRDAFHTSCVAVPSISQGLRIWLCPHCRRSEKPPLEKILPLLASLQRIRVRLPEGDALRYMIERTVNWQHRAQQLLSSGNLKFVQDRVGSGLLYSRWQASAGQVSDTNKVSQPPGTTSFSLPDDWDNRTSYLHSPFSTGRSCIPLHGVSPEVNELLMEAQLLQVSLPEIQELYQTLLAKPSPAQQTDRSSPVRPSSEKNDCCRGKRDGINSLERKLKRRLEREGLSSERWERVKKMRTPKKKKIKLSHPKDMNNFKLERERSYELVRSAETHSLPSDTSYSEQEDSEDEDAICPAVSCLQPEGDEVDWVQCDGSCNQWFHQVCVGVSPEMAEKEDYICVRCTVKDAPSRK

[2] = biological target: T1, Protein cereblon/Lysine-specific demethylase 5B (Homo sapiens) (UniProt Q96SW2+Q9UGL1); assay: PROTAC activity at CRBN/KDM5B in human 22Rv1 cells assessed as induction of KDM5B degradation at 10 uM incubated for 12 hrs by Western blot analysis relative to control; format: cell-based
T1 sequence (Q96SW2 whole entry, looked up): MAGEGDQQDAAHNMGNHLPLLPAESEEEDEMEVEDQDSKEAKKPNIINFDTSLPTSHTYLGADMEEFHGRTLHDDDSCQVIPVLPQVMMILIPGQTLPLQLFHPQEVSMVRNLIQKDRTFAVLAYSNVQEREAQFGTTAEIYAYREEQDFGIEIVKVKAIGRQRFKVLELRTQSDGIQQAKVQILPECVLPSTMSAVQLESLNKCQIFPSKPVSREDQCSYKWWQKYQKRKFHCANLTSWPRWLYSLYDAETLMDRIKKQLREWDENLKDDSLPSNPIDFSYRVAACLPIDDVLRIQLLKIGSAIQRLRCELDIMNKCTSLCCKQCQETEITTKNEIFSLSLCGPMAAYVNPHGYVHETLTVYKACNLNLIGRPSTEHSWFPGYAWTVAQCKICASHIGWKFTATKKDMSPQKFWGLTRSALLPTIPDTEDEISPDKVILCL
T1 sequence (Q9UGL1 whole entry, looked up): as the sequence (Q9UGL1 whole entry) above

[3] = biological target: Protein cereblon/Lysine-specific demethylase 5A (Homo sapiens) (UniProt P29375+Q96SW2); assay: Induction of KDM5A-CRBN (unknown origin) protein protein interaction assessed as ternary complex formation; format: protein assay
[4] = biological target: Protein cereblon/Lysine-specific demethylase 5C (Homo sapiens) (UniProt P41229+Q96SW2); assay: Induction of KDM5C-CRBN (unknown origin) protein protein interaction assessed as ternary complex formation; format: protein assay
Protein cereblon/Lysine-specific demethylase 5C (Homo sapiens), sequence (P41229 whole entry, looked up): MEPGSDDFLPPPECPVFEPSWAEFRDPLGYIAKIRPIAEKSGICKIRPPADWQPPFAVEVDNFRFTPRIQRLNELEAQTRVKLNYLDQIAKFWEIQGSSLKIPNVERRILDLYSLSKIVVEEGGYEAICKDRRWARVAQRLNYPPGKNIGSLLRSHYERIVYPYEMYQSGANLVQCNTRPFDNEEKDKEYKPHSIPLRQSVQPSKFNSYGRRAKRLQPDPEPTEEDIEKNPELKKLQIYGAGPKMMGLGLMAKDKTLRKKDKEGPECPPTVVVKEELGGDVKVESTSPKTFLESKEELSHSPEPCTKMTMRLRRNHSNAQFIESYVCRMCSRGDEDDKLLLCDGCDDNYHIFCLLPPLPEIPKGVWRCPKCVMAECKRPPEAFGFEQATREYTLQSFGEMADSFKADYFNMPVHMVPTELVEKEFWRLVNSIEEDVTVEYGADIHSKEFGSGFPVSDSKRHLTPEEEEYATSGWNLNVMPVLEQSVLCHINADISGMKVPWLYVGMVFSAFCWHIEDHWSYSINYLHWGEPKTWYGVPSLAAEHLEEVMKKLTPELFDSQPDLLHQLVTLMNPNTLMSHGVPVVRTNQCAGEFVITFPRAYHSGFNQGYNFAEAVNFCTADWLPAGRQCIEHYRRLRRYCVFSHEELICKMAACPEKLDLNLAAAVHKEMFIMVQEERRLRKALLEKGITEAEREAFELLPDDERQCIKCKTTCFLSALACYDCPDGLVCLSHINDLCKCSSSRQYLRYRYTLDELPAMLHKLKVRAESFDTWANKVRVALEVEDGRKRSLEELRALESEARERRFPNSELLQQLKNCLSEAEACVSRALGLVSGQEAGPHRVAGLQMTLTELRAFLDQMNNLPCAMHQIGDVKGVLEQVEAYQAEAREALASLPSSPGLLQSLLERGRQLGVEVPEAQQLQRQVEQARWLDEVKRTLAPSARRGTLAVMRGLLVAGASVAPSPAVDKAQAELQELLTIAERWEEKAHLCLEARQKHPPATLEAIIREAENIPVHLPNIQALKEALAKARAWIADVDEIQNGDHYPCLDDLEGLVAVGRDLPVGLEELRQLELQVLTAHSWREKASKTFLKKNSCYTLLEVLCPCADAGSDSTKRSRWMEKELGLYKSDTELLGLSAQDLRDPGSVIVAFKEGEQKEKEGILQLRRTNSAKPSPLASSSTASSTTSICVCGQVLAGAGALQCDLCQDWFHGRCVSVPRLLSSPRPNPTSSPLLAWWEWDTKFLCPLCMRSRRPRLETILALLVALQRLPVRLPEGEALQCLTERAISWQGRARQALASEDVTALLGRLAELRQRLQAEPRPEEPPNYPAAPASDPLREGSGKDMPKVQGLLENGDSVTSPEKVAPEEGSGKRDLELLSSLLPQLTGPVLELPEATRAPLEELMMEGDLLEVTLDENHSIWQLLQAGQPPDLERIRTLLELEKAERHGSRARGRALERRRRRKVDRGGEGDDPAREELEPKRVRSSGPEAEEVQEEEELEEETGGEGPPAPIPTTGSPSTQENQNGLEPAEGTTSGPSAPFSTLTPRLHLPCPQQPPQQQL
Protein cereblon/Lysine-specific demethylase 5C (Homo sapiens), sequence (Q96SW2 whole entry, looked up): as the sequence (Q96SW2 whole entry, looked up) above

[5] = biological target: T1, Protein cereblon/Lysine-specific demethylase 5B (Homo sapiens); assay: PROTAC activity at CRBN/KDM5B in human 22Rv1 cells assessed as reduction in KDM5B level at 0 to 20 uM incubated for 24 hrs by Western blot analysis; format: cell-based; conditions: dose 0-20 µM
[6] = biological target: T1, Protein cereblon/Lysine-specific demethylase 5B (Homo sapiens); assay: PROTAC activity at CRBN/KDM5B in human 22Rv1 cells assessed as increase in H3K4me3 level at 0 to 20 uM incubated for 24 hrs by Western blot analysis; format: cell-based; conditions: dose 0-20 µM
[7] = biological target: T1, Protein cereblon/Lysine-specific demethylase 5B (Homo sapiens); assay: PROTAC activity at CRBN/KDM5B in human 22Rv1 cells assessed as reduction in KDM5B level by RT-qPCR analysis; format: cell-based
[8] = biological target: T1, Protein cereblon/Lysine-specific demethylase 5B (Homo sapiens); assay: PROTAC activity at CRBN/KDM5B in human 22Rv1 cells assessed as increase in H3K4me3 level by […] analysis; format: cell-based
CWR22R [9] = assay: Effect on KDM5B transcription in human 22Rv1 cells at 0 to 20 uM measured after 24 hrs by RT-qPCR analysis; format: functional, cell-based; conditions: dose 0-20 µM
[10] = biological target: T1, Protein cereblon/Lysine-specific demethylase 5B (Homo sapiens); assay: PROTAC activity at CRBN/KDM5B in human 22Rv1 cells assessed as induction of KDM5B degradation at 10 uM in presence of cycloheximide measured after 2 to 12 hrs by Western blot analysis; format: cell-based; conditions: time 2-12 hrs
[11] = biological target: Lysine-specific demethylase 5B (Homo sapiens) (UniProt Q9UGL1); assay: Induction of FLAG-tagged KDM5B degradation in HEK293T cells overexpressing KDM5B assessed as increase in ubiquitinated FLAG-KDM5B level by immunoprecipitation analysis; format: cell-based
[12] = biological target: T1, Protein cereblon/Lysine-specific demethylase 5B (Homo sapiens); assay: Induction of KDM5B-CRBN protein protein interaction in human 22Rv1 cells at 20 uM incubated for 12 hrs in presence of MG-132 by Western blot analysis; format: cell-based
[13] = biological target: T1, Protein cereblon/Lysine-specific demethylase 5B (Homo sapiens); assay: PROTAC activity at CRBN/KDM5B in human 22Rv1 cells assessed as induction of KDM5B degradation at 5 uM in presence of CPI-455 measured after 24 hrs by Western blot analysis; format: cell-based
[14] = biological target: T1, Protein cereblon/Lysine-specific demethylase 5B (Homo sapiens); assay: PROTAC activity at CRBN/KDM5B in human 22Rv1 cells assessed as induction of KDM5B degradation at 5 uM in presence of thalidomide measured after 24 hrs by Western blot analysis; format: cell-based
[15] = biological target: T1, Protein cereblon/Lysine-specific demethylase 5B (Homo sapiens); assay: PROTAC activity at CRBN/KDM5B in human 22Rv1 cells assessed as induction of KDM5B degradation at 5 uM in presence of MG-132 measured after 24 hrs by Western blot analysis; format: cell-based
CWR22R [16] = assay: Cytotoxicity against human 22Rv1 cells assessed as reduction in cell proliferation at 0 to 20 uM measured after 24 to 48 hrs by MTS assay; format: toxicity, cell-based; conditions: dose lower 0 µM, time lower 24 hrs, dose upper 20 µM, time upper 48 hrs
[17] = biological target: Lysine-specific demethylase 5B (Homo sapiens) (UniProt Q9UGL1); assay: Inhibition of KDM5B non-catalytic activity in human 22Rv1 cells assessed as inhibition of KDM5B binding to SETDB1 by measuring reduction in H3K9me3 level at 20 uM incubated for 24 hrs by Co-IP analysis; format: cell-based
[18] = biological target: Lysine-specific demethylase 5B (Homo sapiens) (UniProt Q9UGL1); assay: Inhibition of KDM5B in human 22Rv1 cells assessed as upregulation of HHLA3 mRNA expression at 20 uM incubated for 24 hrs by RT-qPCR analysis; format: cell-based
[19] = biological target: Lysine-specific demethylase 5B (Homo sapiens) (UniProt Q9UGL1); assay: Inhibition of KDM5B in human 22Rv1 cells assessed as upregulation of IFI35 mRNA expression at 20 uM incubated for 24 hrs by RT-qPCR analysis; format: cell-based
[20] = biological target: Lysine-specific demethylase 5B (Homo sapiens) (UniProt Q9UGL1); assay: Inhibition of KDM5B in human 22Rv1 cells assessed as upregulation of IFI27L2 mRNA expression at 20 uM incubated for 24 hrs by RT-qPCR analysis; format: cell-based
[21] = biological target: Lysine-specific demethylase 5B (Homo sapiens) (UniProt Q9UGL1); assay: Inhibition of KDM5B in human 22Rv1 cells assessed as upregulation of IRF3 mRNA expression at 20 uM incubated for 24 hrs by RT-qPCR analysis; format: cell-based
[22] = system: Protein cereblon/Lysine-specific demethylase 5B (Homo sapiens), Q96SW2+Q9UGL1 [L685W]; assay: PROTAC activity at CRBN/KDM5B L685W mutant in KDM5B-deficient human 22Rv1 cells harboring reintroduced KDM5B L685W assessed as induction of protein degradation at 20 uM incubated for 24 hrs by Western blot analysis; format: cell-based
CWR22R [23] = assay: Downregulation of KDM5B-induced H3K9me3 level in KDM5B-deficient human 22Rv1 cells harboring reintroduced KDM5B L685W at 20 uM incubated for 24 hrs by Western blot analysis; format: functional, cell-based
CWR22R [24] = assay: Upregulation of HHLA3 mRNA expression in KDM5B-deficient human 22Rv1 cells harboring reintroduced KDM5B L685W at 20 uM incubated for 24 hrs by RT-qPCR analysis; format: functional, cell-based
CWR22R [25] = assay: Upregulation of IFI35 mRNA expression in KDM5B-deficient human 22Rv1 cells harboring reintroduced KDM5B L685W at 20 uM incubated for 24 hrs by RT-qPCR analysis; format: functional, cell-based
CWR22R [26] = assay: Upregulation of IFI27L2 mRNA expression in KDM5B-deficient human 22Rv1 cells harboring reintroduced KDM5B L685W at 20 uM incubated for 24 hrs by RT-qPCR analysis; format: functional, cell-based
CWR22R [27] = assay: Upregulation of IRF3 mRNA expression in KDM5B-deficient human 22Rv1 cells harboring reintroduced KDM5B L685W at 20 uM incubated for 24 hrs by RT-qPCR analysis; format: functional, cell-based
[28] = biological target: Lysine-specific demethylase 5B (Homo sapiens) (UniProt Q9UGL1); assay: Inhibition of KDM5B (unknown origin) assessed as increase in H3K4me3 level

## CC(C)c1c(-c2ccccc2)[nH]c2c(C#N)cnn2c1=O
[1]
  inhibition: Active

## N#Cc1cnn2c(=O)cc(-c3ccc(OCCNC(=O)CCOCCOc4cccc5c4C(=O)N(C4CCC(=O)NC4=O)C5=O)cc3)[nH]c12 (centres undefined)
[2]
  Activity: 6.31%

## N#Cc1cnn2c(=O)cc(-c3ccc(OCCNC(=O)CCOCCNc4cccc5c4C(=O)N(C4CCC(=O)NC4=O)C5=O)cc3)[nH]c12 (centres undefined)
[2]
  Activity: 5.27%

## N#Cc1cnn2c(=O)cc(-c3ccc(OCC(=O)NCCOCCOc4cccc5c4C(=O)N(C4CCC(=O)NC4=O)C5=O)cc3)[nH]c12 (centres undefined)
[2]
  Activity: 68.3%
[3]
  Activity: inactive
[4]
  Activity: inactive
[5]
  Activity: Active
[6]
  Activity: Active
[7]
  Activity: Active
[8]
  Activity: Active
CWR22R [9]
  Activity: inactive
[10]
  Activity: Active
[11]
  Activity: Active
[12]
  Activity: Active
[13]
  Activity: inactive
[14]
  Activity: inactive
[15]
  Activity: inactive
CWR22R [16]
  Activity: Non-Toxic
[1]
  inhibition: Active
[17]
  inhibition: Active
[18]
  inhibition: Active
[19]
  inhibition: Active
[20]
  inhibition: Active
[21]
  inhibition: Active
[22]
  Activity: Active
CWR22R [23]
  Activity: Active
CWR22R [24]
  Activity: Active
CWR22R [25]
  Activity: Active
CWR22R [26]
  Activity: Active
CWR22R [27]
  Activity: Active

## CC(C)(C)OC(=O)COc1ccc(-c2cc(=O)n3ncc(C#N)c3[nH]2)cc1
[28]
  inhibition: Active

## N#Cc1cnn2c(=O)cc(-c3ccc(OCC(=O)NCCOCCNC(=O)COc4cccc5c4C(=O)N(C4CCC(=O)NC4=O)C5=O)cc3)[nH]c12 (centres undefined)
[2]
  Activity: 0%

## N#Cc1cnn2c(=O)cc(-c3ccc(OCCNC(=O)CCOCCOCCNc4cccc5c4C(=O)N(C4CCC(=O)NC4=O)C5=O)cc3)[nH]c12 (centres undefined)
[2]
  Activity: 0%

## CC(C)(C)OC(=O)NCCOc1ccc(-c2cc(=O)n3ncc(C#N)c3[nH]2)cc1
[28]
  inhibition: Active

## N#Cc1cnn2c(=O)cc(-c3ccc(OCCNC(=O)CCCNc4cccc5c4C(=O)N(C4CCC(=O)NC4=O)C5=O)cc3)[nH]c12 (centres undefined)
[2]
  Activity: 0%

## N#Cc1cnn2c(=O)cc(-c3ccc(OCCNC(=O)CCCCCNc4cccc5c4C(=O)N(C4CCC(=O)NC4=O)C5=O)cc3)[nH]c12 (centres undefined)
[2]
  Activity: 10.8%

## N#Cc1cnn2c(=O)cc(-c3ccc(OCC(=O)NCCOCCNC(=O)CNc4cccc5c4C(=O)N(C4CCC(=O)NC4=O)C5=O)cc3)[nH]c12 (centres undefined)
[2]
  Activity: 0%

## N#Cc1cnn2c(=O)cc(-c3ccc(OCCNC(=O)CCOCCOCCOCCOCCNc4cccc5c4C(=O)N(C4CCC(=O)NC4=O)C5=O)cc3)[nH]c12 (centres undefined)
[2]
  Activity: 0%

## N#Cc1cnn2c(=O)cc(-c3ccc(OCCNC(=O)CCOCCOCCOCCNc4cccc5c4C(=O)N(C4CCC(=O)NC4=O)C5=O)cc3)[nH]c12 (centres undefined)
[2]
  Activity: 0%
